Test results taken from US4748232A, “Peptide production and use thereof” (Suntory Limited, priority 1983, dated 1988).

How the values were obtained:
Male rats = assay: Diuretic and natriuretic action in anesthetized rats (urine collected via bladder cannula); type: in vivo, rat; conditions: 1.21 μ mole, group V
Description: To keep the respiratory tract open, a tracheal cannula (PE-240 Clay-Adams) was inserted into the trachea. An arterial cannula (PE-50) was inserted into a femoral artery for measurement of the blood pressure, and a venous cannula was inserted into a femoral vein for the administration of Ringer's solution. 1.2 ml of Ringer's solution was injected for ten minutes, and subsequently, was constantly infused at a flow rate of 1.2 ml/hour.
A bladder cannula made of silastic tube with an inner diameter of 0.02 inches and an outer diameter of 0.037 inches was inserted into the bladder, and via the cannula, a urine sample was collected into a test tube. The collection of urine was carried out for 30 minutes before administration of the test compound, and every five minutes after the administration.
The control group (group I) was administered 50 μl of physiological saline containing only bacitracin.
Groups I to IV each consisted of three animals, and group V consisted of four animals.

[1] = Immunogenicity and toxicity on administration; type: in vivo
Solubility in solvents = type: physicochemical

**Q.** What does the source list for NS(=O)(=O)c1cc(C(=O)O)c(NCc2ccco2)cc1Cl [Furosemide, furosemide]?
**A.** Urine volume A (Male rats; A: sample collected 5 minutes after administration): 167 ± 28 µL/min; Urine volume B (Male rats; B: sample collected 30 minutes before administration): 8.6 ± 1.9 µL/min

**Q.** What does the source list for CC[C@H](C)[C@@H]1NC(=O)[C@H](CCCNC(=N)N)NC(=O)[C@H](CC(=O)O)NC(=O)[C@H](CCSC)NC(=O)[C@H](CCCNC(=N)N)NC(=O)CNC(=O)CNC(=O)[C@H](Cc2ccccc2)NC(=O)[C@@H](NC(=O)[C@H](CO)NC(=O)[C@H](CO)NC(=O)[C@H](CCCNC(=N)N)NC(=O)[C@H](CCCNC(=N)N)NC(=O)[C@H](CC(C)C)NC(=O)[C@@H](N)CO)CSSC[C@@H](C(=O)N[C@@H](CC(N)=O)C(=O)N[C@@H](CO)C(=O)N[C@@H](Cc2ccccc2)C(=O)N[C@@H](CCCNC(=N)N)C(=O)N[C@@H](Cc2ccc(O)cc2)C(=O)O)NC(=O)CNC(=O)[C@H](CC(C)C)NC(=O)CNC(=O)[C@H](CO)NC(=O)[C@H](CCC(N)=O)NC(=O)[C@H](C)NC(=O)CNC1=O [α-hANP, α-human atrial natriuretic polypeptide]?
**A.** toxicity ([1]; gradually hydrolized in a body providing the L-amino acids): little toxicity; anaphylaxis shock ([1]; repeated administration): does not cause anaphylaxis shock; production of antibodies ([1]; repeated administration): does not stimulate production of antibodies; Solubility in solvents (Solubility in solvents; ethyl acetate, butyl acetate, ethyl ether, hexane, petroleum ether, benzene, and chloroform): insoluble; Solubility in solvents (Solubility in solvents; methanol, and acetic acid): partially; Solubility in solvents (Solubility in solvents; water): soluble
